{"source": "patent US4042695A", "about": "“Thiaxanthene derivatives, compositions thereof and methods of treating therewith” (priority 1972, dated 1977)", "key": {"[1]": {"assay": "Pharmacological tests (test not specified)", "details": "in vivo; listed as Example 12 alpha-isomer"}, "rats": {"tested_on": "rats", "assay": "Antagonism of amphetamine-induced stereotyped behaviour in rats", "type": "in vivo", "details": "oral; for ED50: Rattus norvegicus", "description": "The modification used by us was as follows:\nThe animals were then placed in individual cages. […] The absence of stereotypy was interpreted as a drug effect. ED50 values for protection against stereotypy were determined. All compounds were tested at a minimum of three dose levels using 10 rats per dose, and the observer was kept unaware of the identity of the groups until after the experiment."}, "[2]": {"tested_on": "adult purebred Beagle dogs", "assay": "Apomorphine antagonism in dogs", "type": "in vivo", "details": "ordinary doses, prolonged treatment"}}, "note": "Where two headings read alike, the source gives them in different places."}
{"smiles": "OCCC1CCN(CCC=C2c3ccc(F)cc3Sc3ccc(C(F)(F)F)cc32)CC1", "note": "[Substance 13, alpha-isomer of 2-trifluoromethyl-6-fluoro-9-(3-(4-(2-hydroxyethyl)-1-piperidyl)propylidene)-thiaxanthene]", "values": [{"measurement": "pharmacological activity of the isomer (in words)", "setting": "[1]", "value": "pharmacologically active"}, {"measurement": "ED50", "setting": "rats; 24 hours after administration, read-out: ED50 for protection against stereotypy, peak effect (24 hours)", "value": 0.04, "unit": "mg/kg"}, {"measurement": "ED50", "setting": "rats; 48 h, read-out: ED50 for protection against stereotypy, 48 h", "value": 0.2, "unit": "mg/kg"}, {"measurement": "ED50", "setting": "rats; 72 h, read-out: ED50 for protection against stereotypy, 72 h", "value": 0.9, "unit": "mg/kg"}, {"measurement": "ED50", "setting": "rats; 96 h, read-out: ED50 for protection against stereotypy, 96 h", "value": 2.3, "unit": "mg/kg"}, {"measurement": "time of peak effect, amphetamine antagonism", "setting": "rats", "value": 24, "unit": "h"}, {"measurement": "amphetamine antagonistic effect 4 days after administration (in words)", "setting": "rats; 4 days", "value": "rather weak"}, {"measurement": "feed intake and survival", "setting": "[2]", "value": "did not take feed to a sufficient degree and, accordingly tended to die by starvation"}]}
